Tested on: HarmGR195
Conditions: agonist; HarmGR195 expressed alone; SEM, N = 3; HBSS

- EC50: 43 ± 7 mM
Structure (SMILES): O=C(O)[C@@H]1CCCN1 [proline]
